Calls of active or inactive are those of the source. No cut-off for these calls is given here.
What was measured:
[1] = molecular target: T1, Gamma-aminobutyric acid receptor subunit alpha-2 (Homo sapiens) (UniProt P47869); experiment: Agonist activity at recombinant GABAA receptor subunit alpha-2 expressed in CHO cells at 3 uM by sensitive fluorometric read-out assay relative to midazolam; assay type: functional, cell-based
T1 sequence (whole entry): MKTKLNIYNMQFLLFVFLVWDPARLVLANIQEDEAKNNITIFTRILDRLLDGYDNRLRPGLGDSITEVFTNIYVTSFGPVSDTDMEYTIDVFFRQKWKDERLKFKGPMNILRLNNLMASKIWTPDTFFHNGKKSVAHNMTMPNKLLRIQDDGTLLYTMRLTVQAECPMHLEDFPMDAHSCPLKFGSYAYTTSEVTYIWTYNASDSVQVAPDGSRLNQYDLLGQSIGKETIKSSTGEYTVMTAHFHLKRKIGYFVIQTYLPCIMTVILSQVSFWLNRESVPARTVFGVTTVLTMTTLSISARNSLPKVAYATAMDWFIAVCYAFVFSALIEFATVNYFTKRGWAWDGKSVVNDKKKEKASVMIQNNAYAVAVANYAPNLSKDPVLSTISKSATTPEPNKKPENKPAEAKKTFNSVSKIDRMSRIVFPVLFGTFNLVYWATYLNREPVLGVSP

[2] = molecular target: T2, Gamma-aminobutyric acid receptor subunit alpha-1 (Homo sapiens, UniProt P14867); experiment: Displacement of [3H]flumazenil from GABAA receptor subunit alpha-1 expressed in CHO cells; assay type: cell-based
T2 sequence (P14867 whole entry): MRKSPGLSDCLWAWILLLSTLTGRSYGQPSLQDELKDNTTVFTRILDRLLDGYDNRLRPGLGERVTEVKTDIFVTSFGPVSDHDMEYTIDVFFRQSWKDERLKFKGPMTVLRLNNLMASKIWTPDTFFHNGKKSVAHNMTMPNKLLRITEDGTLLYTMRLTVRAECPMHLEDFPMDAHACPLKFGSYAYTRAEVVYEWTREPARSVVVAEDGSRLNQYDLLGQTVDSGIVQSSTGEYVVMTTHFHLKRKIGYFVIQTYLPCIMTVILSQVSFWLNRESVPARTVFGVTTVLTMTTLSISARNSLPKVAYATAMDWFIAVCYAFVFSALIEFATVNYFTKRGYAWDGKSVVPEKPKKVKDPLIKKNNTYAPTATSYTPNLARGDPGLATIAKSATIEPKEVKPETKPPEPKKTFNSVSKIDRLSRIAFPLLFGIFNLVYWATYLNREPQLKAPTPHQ

[3] = molecular target: T3, Gamma-aminobutyric acid receptor subunit alpha-1 (Homo sapiens) (UniProt P14867); experiment: Agonist activity at recombinant GABAA receptor subunit alpha-1 expressed in CHO cells at 3 uM by sensitive fluorometric read-out assay relative to midazolam; assay type: functional, cell-based
T3 sequence (whole entry): T2 sequence (P14867 whole entry)

[4] = molecular target: T4, Gamma-aminobutyric acid receptor subunit alpha-2 (Homo sapiens, UniProt P47869); experiment: Displacement of [3H]flumazenil from GABAA receptor subunit alpha-2 expressed in CHO cells; assay type: cell-based
T4 sequence (P47869 whole entry): T1 sequence (whole entry)

[5] = molecular target: T3, Gamma-aminobutyric acid receptor subunit alpha-1 (Homo sapiens); experiment: Agonist activity at recombinant GABAA receptor subunit alpha-1 expressed in CHO cells at 1 uM by sensitive fluorometric read-out assay relative to midazolam; assay type: functional, cell-based
[6] = molecular target: T1, Gamma-aminobutyric acid receptor subunit alpha-2 (Homo sapiens); experiment: Agonist activity at recombinant GABAA receptor subunit alpha-2 expressed in CHO cells at 1 uM by sensitive fluorometric read-out assay relative to midazolam; assay type: functional, cell-based
[7] = Intrinsic clearance in rat liver microsomes at 5 uM after 60 mins; assay type: ADME, Microsome

| SMILES | Efficacy [1] | IC50 [2] | Efficacy [3] | IC50 [4] | microsomal CLint at 5 µM [7] | Efficacy [5] | Efficacy [6] |
| --- | --- | --- | --- | --- | --- | --- | --- |
| O=C1C2C=Nc3ccccc3C2=NN1c1ccc(Cl)cc1 (centres undefined) [CGS-9896] | – | 0.001 µM | – | 0.004 µM | – | 38% | 47% |
| Clc1ccc(-n2nc3c(cnc4ccc(-n5ccnc5)cc43)c2OCC2CC2)cc1 | 35% | 0.134 µM | 80% | 2.11 µM | – | – | – |
| Clc1ccc(-n2nc3c(cnc4ccccc43)c2OCc2ccccc2Cl)cc1 | 22% | 0.064 µM | 13% | 0.265 µM | – | – | – |
| Clc1ccc(COc2c3cnc4c(c3nn2-c2ccc(Cl)cc2)CCCC4)cc1 | 42% | 0.157 µM | 20% | 0.177 µM | – | – | – |
| Clc1ccc(-n2nc3c4c(ncc3c2OCC2CC2)CCCC4)cc1 | 64% | 0.094 µM | 18% | 0.185 µM | – | – | – |
| Clc1ccc(-n2nc3c4c(ncc3c2OCc2ccccc2Cl)CCOC4)cc1 | 32% | – | 4% | 0.461 µM | – | – | – |
| Clc1ccccc1COc1c2cnc3ccccc3c2nn1-c1ccc2c(c1)OCO2 | 19% | 0.05 µM | -15% | 0.155 µM | – | – | – |
| Fc1ccccc1-n1nc2c(cnc3ccccc32)c1OCc1ccccc1Cl | 17% | 0.001 µM | -8% | 0.002 µM | – | – | – |
| Clc1ccc(-n2nc3c(cnc4ccccc43)c2OCC2CC2)cc1 | 36% | 0.074 µM | 37% | 0.472 µM | – | – | – |
| CC1(C)CCc2ncc3c(OCc4ccccc4Cl)n(-c4ccc(Cl)cc4)nc3c2C1 | 23% | 0.067 µM | 4% | 0.213 µM | – | – | – |
| Clc1ccc(-n2nc3c4c(ncc3c2OCc2cccc(Cl)c2)CCCC4)cc1 | 50% | – | 38% | – | – | – | – |

Further lines, with some results ahead:

| Efficacy [1] | IC50 [2] | Efficacy [3] | IC50 [4] | microsomal CLint at 5 µM [7] | SMILES | Efficacy [5] | Efficacy [6] |
| --- | --- | --- | --- | --- | --- | --- | --- |
| 41% | 0.05 µM | 24% | 0.057 µM | – | Fc1ccc(COc2c3cnc4c(c3nn2-c2ccc(Cl)cc2)CCCC4)cc1 | – | – |
| 94% | – | 84% | – | – | FC(F)(F)c1ccccc1COc1c2cnc3c(c2nn1-c1ccc(Cl)cc1)CCCC3 | – | – |
| inactive | > 3 µM | inactive | > 3 µM | – | Clc1ccc(-n2nc3c4c(ncc3c2Oc2ccccc2Cl)CCCC4)cc1 | – | – |
| 96% | 0.242 µM | 114% | 0.605 µM | – | Clc1ccc(-n2nc3c4c(ncc3c2OCc2ccccc2Cl)CCCCC4)cc1 | – | – |
| 50% | 0.046 µM | 25% | 0.271 µM | 128 µL/min/mg | Clc1ccc(-n2nc3c4c(ncc3c2OCc2ccccc2Cl)CCCC4)cc1 | – | – |
| 83% | 0.064 µM | 31% | 0.154 µM | – | Fc1ccccc1COc1c2cnc3c(c2nn1-c1ccc(Cl)cc1)CCCC3 | – | – |

— ChEMBL document CHEMBL1681636, “Exploring subtype selectivity and metabolic stability of a novel series of ligands for the benzodiazepine binding site of the GABAA receptor” (Bioorg Med Chem Lett, 2011)
